Some test systems named below: PC-3 prostate; MALME-3M melanoma; SN12C renal; KM12 colon; U251 CNS; LOX IMVI melanoma; NCI-H23 lung.
Common to all, as to test: NCI anticancer screen, dose series, 48 h

Molecules are shown by their SMILES.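 Values below derive from 48-hour exposures of cells grown in 96-well plates, with endpoints linearly interpolated between the two concentrations bracketing the appropriate inhibition level. TGI denotes the concentration required for complete inhibition of growth.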 Where a SMILES comes first, the peptide text is derived from it. Side-chain parts run from the residue outwards. The star is where a group is joined. Cbz = O=C(OCc1ccccc1)*; Boc = CC(C)(C)OC(=O)*

With `COc1ccc(N2C(=O)C3c4[nH]c5ccccc5c4C4c5ccccc5CC4C3C2=O)cc1` (stereo unspecified), the TGI with PC-3 prostate, with MALME-3M melanoma, in the test on SN12C renal, in the test on KM12 colon, in the test with U251 CNS and in the test on LOX IMVI melanoma was over 100 µM each time. The molecule further displayed a TGI in the test on NCI-H23 lung of over 100 µM.
In the case of `N#Cc1ccc(C2Oc3ccc(Cl)cc3C=C2[N+](=O)[O-])cc1` (stereo unspecified), the TGI is 3.37 µM in the test on PC-3 prostate; 4.79 µM in the test on MALME-3M melanoma; 3.81 µM in the test on KM12 colon; 3.31 µM in the test with U251 CNS; 3.02 µM in the test on LOX IMVI melanoma; 3.23 µM in the test on NCI-H23 lung.
Consider `C[C@@]12C[C@@H](c3ccccc3O1)N1Cc3ccccc3CSC1=N2`, for which the TGI in the test with PC-3 prostate, in the test with MALME-3M melanoma, in the test on SN12C renal, with KM12 colon, in the test on U251 CNS and with LOX IMVI melanoma was over 100 µM each time. In the test on NCI-H23 lung, this molecule yielded a TGI of over 100 µM.
Regarding `CC(C)(C)OC(=O)n1c(Cl)c(C=O)c2ccccc21`, the TGI in the test with PC-3 prostate was 64.6 µM; in the test on MALME-3M melanoma it was 39.9 µM; in the test on SN12C renal, 54.3 µM; in the test on KM12 colon, 39.2 µM; in the test with U251 CNS it was over 100 µM; with LOX IMVI melanoma it was 68.1 µM. In the test with NCI-H23 lung, this molecule registered a TGI of 47 µM.
Take `COc1cc2[nH]c(=O)c3cc(C)cc4c(Cl)nc(c1OC)c2c43`: the TGI is over 100 µM in the test with PC-3 prostate; 62 µM with MALME-3M melanoma; over 100 µM in the test with KM12 colon; over 100 µM in the test on U251 CNS; over 100 µM in the test on LOX IMVI melanoma; over 100 µM with NCI-H23 lung.
With `CN(/N=C/c1ccc(Cl)cc1)C1=NCCCCN1`, the TGI in the test on PC-3 prostate, with MALME-3M melanoma, in the test on SN12C renal, in the test with KM12 colon, with U251 CNS and with LOX IMVI melanoma was over 100 µM in each case. The molecule also came in with a TGI in the test on NCI-H23 lung of over 100 µM.
As to `CC(=O)N1C(Nc2cccc3nc(C)ccc23)CCN1c1ccccc1` (stereo unspecified), the TGI in the test on PC-3 prostate, in the test on MALME-3M melanoma, with SN12C renal, in the test with LOX IMVI melanoma and in the test with NCI-H23 lung was over 10 µM in each case.
For `O=C1CC(C(COCc2ccccc2)OCc2ccccc2)CC(=O)N1` (stereo unspecified), the TGI in the test with PC-3 prostate, in the test with MALME-3M melanoma, in the test with SN12C renal, in the test on KM12 colon, in the test on U251 CNS and in the test with LOX IMVI melanoma was over 100 µM in each case. The same molecule showed a TGI in the test on NCI-H23 lung of over 100 µM.
With `S=C(N/N=C(\C(=N/NC(=S)N1CCCCC1)c1ccccn1)c1ccccn1)N1CCCCC1`, the TGI with PC-3 prostate, in the test on MALME-3M melanoma, with KM12 colon, in the test with U251 CNS, in the test on LOX IMVI melanoma and in the test with NCI-H23 lung was over 100 µM throughout.
As for `CC(C)(C)OC(=O)NC(CCCCNC(=O)CNC(=O)OCc1ccccc1)C(=O)NC(CCCCNC(=O)CNC(=O)OCc1ccccc1)C(=O)NC(CCCCNC(=O)CNC(=O)OCc1ccccc1)C(=O)NC(CCCCNC(=O)CNC(=O)OCc1ccccc1)C(=O)O` (stereo unspecified) (Boc-K([Gly-Cbz])K([Gly-Cbz])K([Gly-Cbz])K([Gly-Cbz])-OH; configuration not given here), the TGI in the test with PC-3 prostate, with MALME-3M melanoma, with SN12C renal, with U251 CNS, in the test on LOX IMVI melanoma and in the test with NCI-H23 lung was over 100 µM each time.
As for `Cc1cn([C@@H]2C[C@H](CO)[C@@H]2O)c(=O)[nH]c1=O`, the TGI in the test with PC-3 prostate, in the test with MALME-3M melanoma, in the test with SN12C renal, in the test on KM12 colon, in the test on U251 CNS and in the test on LOX IMVI melanoma was over 100 µM throughout. The TGI in the test with NCI-H23 lung was over 100 µM.
Take `CCOC1NC(/N=C/c2ccc(OC)cc2)=C(C#N)C1C#N` (stereo unspecified): the TGI with PC-3 prostate, in the test with MALME-3M melanoma, in the test on SN12C renal, in the test with KM12 colon, in the test on U251 CNS and in the test on LOX IMVI melanoma was over 100 µM in each case. The same molecule came in with a TGI with NCI-H23 lung of over 100 µM.
With `OC(C1CCCCCCCCCC1)C(O)C1CCCCCCCCCC1` (stereo unspecified), the TGI with PC-3 prostate, with MALME-3M melanoma, in the test on SN12C renal, in the test on KM12 colon, in the test on U251 CNS and in the test with LOX IMVI melanoma was over 100 µM in each case. Also, in the test on NCI-H23 lung, the TGI was over 100 µM.
In the case of `O=C1O[C@H]2C3C4CCC(C4[C@@H]2I)[C@H]13` (stereo partly specified), the TGI in the test on PC-3 prostate, in the test on MALME-3M melanoma, in the test with SN12C renal, in the test with KM12 colon, in the test on U251 CNS and with LOX IMVI melanoma was over 100 µM in each case. The same molecule yielded a TGI with NCI-H23 lung of over 100 µM.
Consider `Cc1c2cccc-2c(OCCOC(=O)n2ccnc2)cc2c1[nH]c1ccccc12`, for which the TGI with PC-3 prostate is 3.48 µM; in the test on MALME-3M melanoma it was 7.61 µM; in the test with SN12C renal, 5.89 µM; with KM12 colon it was 4.65 µM; in the test on LOX IMVI melanoma, 3.86 µM; in the test with NCI-H23 lung, 6.31 µM.
Take `COc1ccc(C2C(C#N)=C(S)N(C3OC(CO)C(O)C(O)C3O)C(C)=C2C(C)=O)cc1` (stereo unspecified): the TGI in the test on PC-3 prostate, in the test with MALME-3M melanoma, in the test on SN12C renal, with KM12 colon, with U251 CNS and with LOX IMVI melanoma was over 100 µM throughout. For the same molecule, the TGI in the test on NCI-H23 lung is over 100 µM.
Turning to `CC(=O)c1ccc2c3c1O[C@H]1c4[nH]c5ccccc5c4C[C@@]4(O)[C@@H](C2)N(CC2CC2)CC[C@]314`, the TGI was 21.7 µM in the test on PC-3 prostate; 36.3 µM in the test with MALME-3M melanoma; 34.4 µM in the test on SN12C renal; 37.6 µM with KM12 colon; 26.1 µM in the test with U251 CNS; 33 µM with LOX IMVI melanoma. This molecule yielded a TGI in the test with NCI-H23 lung of 48.1 µM.
Take `Cc1ccc(N=C2SC(=NN(C)C)SC2=Nc2ccc(C)cc2)cc1`: the TGI in the test with PC-3 prostate, in the test with MALME-3M melanoma, with SN12C renal, in the test on KM12 colon, in the test on U251 CNS and in the test on LOX IMVI melanoma was over 100 µM in each case. This molecule had a TGI in the test with NCI-H23 lung of over 100 µM.
As for `COc1cc(O)cc(O)c1C(=O)CC(Cl)(Cl)Cl`, the TGI in the test with PC-3 prostate, in the test on MALME-3M melanoma, in the test with SN12C renal, with KM12 colon, in the test on U251 CNS and in the test with LOX IMVI melanoma was over 100 µM in each case. The molecule further registered a TGI with NCI-H23 lung of over 100 µM.

For the origin of these results see PubChem BioAssay (NCI).
